# Source: PubChem BioAssay (NCI)
#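 At the GI50, growth is halved. TGI is the concentration that stops growth completely.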
# Key:
# Experiment in all cases: NCI anticancer screen, dose series, 384-well format
# HT29 colon = system: HT29 colon
# OVCAR-4 ovarian = system: OVCAR-4 ovarian
# SF-295 CNS = system: SF-295 CNS
# HOP-62 NSCLC = system: HOP-62 NSCLC
# RXF 393 renal = system: RXF 393 renal
# SF-539 CNS = system: SF-539 CNS
# SW-620 colon = system: SW-620 colon
# OVCAR-5 ovarian = system: OVCAR-5 ovarian
# SR leukemia = system: SR leukemia
# A549 NSCLC = system: A549 NSCLC
# MALME-3M melanoma = system: MALME-3M melanoma
# SK-MEL-5 melanoma = system: SK-MEL-5 melanoma
# MDA-MB-231 breast = system: MDA-MB-231 breast
smiles,measurement,setting,value
O=C1Nc2ccc(I)cc2/C1=C/c1cc(Br)c(O)c(Br)c1,GI50,HT29 colon,14.1 µM
same,TGI,HT29 colon,31.1 µM
same,GI50,OVCAR-4 ovarian,19.1 µM
same,TGI,OVCAR-4 ovarian,47.1 µM
same,GI50,SF-295 CNS,11.9 µM
same,TGI,SF-295 CNS,34.2 µM
same,GI50,HOP-62 NSCLC,20.4 µM
same,TGI,HOP-62 NSCLC,39.9 µM
same,GI50,RXF 393 renal,12.6 µM
same,TGI,RXF 393 renal,25.5 µM
same,GI50,SF-539 CNS,15.4 µM
same,TGI,SF-539 CNS,30.1 µM
same,GI50,SW-620 colon,16.9 µM
same,TGI,SW-620 colon,31.4 µM
same,GI50,OVCAR-5 ovarian,25.1 µM
same,TGI,OVCAR-5 ovarian,65 µM
same,GI50,SR leukemia,6.31 µM
same,TGI,SR leukemia,18.8 µM
same,GI50,A549 NSCLC,17.2 µM
same,TGI,A549 NSCLC,46 µM
same,GI50,MALME-3M melanoma,4.43 µM
same,TGI,MALME-3M melanoma,20.8 µM
same,GI50,SK-MEL-5 melanoma,12.3 µM
same,TGI,SK-MEL-5 melanoma,24.8 µM
same,GI50,MDA-MB-231 breast,14 µM
same,TGI,MDA-MB-231 breast,31.7 µM
